From US20140105921A1, “Prodrugs of Peptide Epoxy Ketone Protease Inhibitors” (Onyx Therapeutics, Inc., priority 2012, published 2014)
Read-outs that look alike come from different tables or passages of the source. Blank lines part the entries; values can stand above or below the molecule they belong to.

Columns and labels:
c20s = c20s (Homo sapiens, UniProt P20618+P28074); test: Purified PI, IC50 against c20s; type: biochemical
i20s = i20s (Homo sapiens, UniProt P20618+P28062); test: Purified PI, IC50 against i20s; type: biochemical
[1] = Conversion of Prodrugs by Human Liver S9; type: in vitro ADME
[2] = Buffer Conversion Rates of Prodrugs to Compound B; type: physicochemical
[3] = In vivo mouse PK of Compound A and PEG prodrugs; settings: for [Cmpd A]: BLOQ = below level of quantitation
[4] = Table G, read-out: IC50 Slope c20s
[5] = Table G, read-out: IC50 Slope i20s
[6] = IC50 60 minute point c20s, Table H, 60 minute point
[7] = Table H, read-out: IC50 Slope c20s
[8] = IC50 60 minute point i20s, Table H, 60 minute point
[9] = Table H, read-out: IC50 Slope i20s
[10] = Table G, value marked *: did not converge, read-out: IC50 Slope i20s
[11] = Table G, value marked *: did not converge, read-out: IC50 Slope c20s

IC50 (c20s; [4]): 73.7 nM | IC50 (i20s; [5]): 316 nM
Structure (SMILES): Cc1ccc(S(=O)(=O)OC[C@@](C)(O)C(=O)[C@H](CC(C)C)NC(=O)[C@H](Cc2ccccc2)NC(=O)[C@H](CC(C)C)NC(=O)[C@H](CCc2ccccc2)NC(=O)CN2CCOCC2)cc1

Human Liver S9 % Conversion @ 1 hour [1]: 1%
Structure (SMILES): CCOC(=O)CCC(=O)O[C@](C)(CI)C(=O)[C@H](Cc1ccccc1)NC(=O)[C@H](COC)NC(=O)[C@H](COC)NC(=O)c1cnc(C)s1 [20-17]

IC50 (c20s; [4]): 615 nM | IC50 (i20s; [5]): 143 nM
Structure (SMILES): CC(C)C[C@H](NC(=O)[C@H](CCc1ccccc1)NC(=O)CN1CCOCC1)C(=O)N[C@@H](Cc1ccccc1)C(=O)N[C@@H](CC(C)C)C(=O)[C@](C)(O)CCl

Human Liver S9 % Conversion @ 1 hour [1]: 29%
Structure (SMILES): COC[C@H](NC(=O)c1cnc(C)s1)C(=O)N[C@@H](COC)C(=O)N[C@@H](Cc1ccccc1)C(=O)[C@@](C)(CI)OC=O [20-24]

Buffer pH = 7.4 % Conversion @ 1 hour [2]: 5.7%
Structure (SMILES): COC[C@H](NC(=O)c1cnc(C)s1)C(=O)N[C@@H](COC)C(=O)N[C@@H](Cc1ccccc1)C(=O)[C@](C)(O)COS(=O)(=O)CC(F)F [20-6]

IC50 60 minute point c20s (c20s; Table H, 60 minute point): inactive | IC50 60 minute point i20s (i20s; Table H, 60 minute point): inactive
Structure (SMILES): COC[C@H](NC(=O)c1cnc(C)s1)C(=O)N[C@@H](COC)C(=O)N[C@@H](Cc1ccccc1)C(=O)[C@](C)(O)COP(=O)(c1ccccc1)c1ccccc1

IC50 (c20s; [6]): 459 nM | IC50 (c20s; [7]): 103 nM | IC50 (i20s; [8]): 614 nM | IC50 (i20s; [9]): 179 nM
Structure (SMILES): COC[C@H](NC(=O)c1cnc(C)s1)C(=O)N[C@@H](COC)C(=O)N[C@@H](Cc1ccccc1)C(=O)[C@](C)(O)COS(C)(=O)=O

[Cmpd A] ([3]; Time 4 hr): BLOQ | [Cmpd A] ([3]; Time 6 hr): BLOQ | [Cmpd A] ([3]; Time 24 hr): BLOQ | concentration at 1 hr ([3]; plasma, Time 1 hr, read-out: [Cmpd A]): 8 nM
Structure (SMILES): CC(C)C[C@H](NC(=O)[C@H](CCc1ccccc1)NC(=O)CN1CCOCC1)C(=O)N[C@@H](Cc1ccccc1)C(=O)N[C@@H](CC(C)C)C(=O)[C@@]1(C)CO1 [Cmpd A, (S)-4-methyl-N—((S)-1-(((S)-4-methyl-1-((R)-2-methyloxiran-2-yl)-1-oxopentan-2-yl)amino)-1-oxo-3-phenylpropan-2-yl)-2-((S)-2-(2-morpholinoacetamido)-4-phenylbutanamido)pentanamide]

Structure (SMILES): CC(C)C[C@H](NC(=O)[C@H](CCc1ccccc1)NC(=O)CN1CCOCC1)C(=O)N[C@@H](Cc1ccccc1)C(=O)N[C@@H](CC(C)C)C(=O)[C@](C)(O)COP(=O)(c1ccccc1)c1ccccc1
IC50 (c20s; [4]): 2670 nM | IC50 (i20s; [10]): 2550 nM

Human Liver S9 % Conversion @ 1 hour [1]: 11%
Structure (SMILES): COC[C@H](NC(=O)c1cnc(C)s1)C(=O)N[C@@H](COC)C(=O)N[C@@H](Cc1ccccc1)C(=O)[C@@](C)(CI)OC(=O)CCCOC(C)=O [20-13]

Human Liver S9 % Conversion @ 1 hour [1]: 32%
Structure (SMILES): COC[C@H](NC(=O)c1cnc(C)s1)C(=O)N[C@@H](COC)C(=O)N[C@@H](Cc1ccccc1)C(=O)[C@@](C)(CI)OC(=O)Oc1ccccc1 [20-26]

IC50 (i20s; [5]): 660 nM
Structure (SMILES): CC(C)C[C@H](NC(=O)[C@H](CCc1ccccc1)NC(=O)CN1CCOCC1)C(=O)N[C@@H](Cc1ccccc1)C(=O)N[C@@H](CC(C)C)C(=O)[C@](C)(O)COC(=O)c1c(Cl)cccc1Cl

IC50 (i20s; [10]): 3240 nM
Structure (SMILES): COCCOCCOCCOCCC(=O)N/N=C(/[C@H](CC(C)C)NC(=O)[C@H](Cc1ccccc1)NC(=O)[C@H](CC(C)C)NC(=O)[C@H](CCc1ccccc1)NC(=O)CN1CCOCC1)[C@@]1(C)CO1

Buffer pH = 7.4 % Conversion @ 1 hour [2]: 4.2%
Structure (SMILES): CCCCS(=O)(=O)OC[C@@](C)(O)C(=O)[C@H](Cc1ccccc1)NC(=O)[C@H](COC)NC(=O)[C@H](COC)NC(=O)c1cnc(C)s1 [20-7]

Buffer pH = 7.4 % Conversion @ 1 hour [2]: 24%
Structure (SMILES): COC[C@H](NC(=O)c1cnc(C)s1)C(=O)N[C@@H](COC)C(=O)N[C@@H](Cc1ccccc1)C(=O)[C@](C)(O)CI [20-1]

Structure (SMILES): CO/N=C(/[C@H](CC(C)C)NC(=O)[C@H](Cc1ccccc1)NC(=O)[C@H](CC(C)C)NC(=O)[C@H](CCc1ccccc1)NC(=O)CN1CCOCC1)[C@@]1(C)CO1
IC50 (c20s; [11]): 2610 nM

Human Liver S9 % Conversion @ 1 hour [1]: 14%
Structure (SMILES): CCOC(=O)O[C@](C)(CI)C(=O)[C@H](Cc1ccccc1)NC(=O)[C@H](COC)NC(=O)[C@H](COC)NC(=O)c1cnc(C)s1 [20-25]

Structure (SMILES): CC(C)C[C@H](NC(=O)[C@H](CCc1ccccc1)NC(=O)CN1CCOCC1)C(=O)N[C@@H](Cc1ccccc1)C(=O)N[C@@H](CC(C)C)/C(=N/O)[C@@]1(C)CO1
IC50 (c20s; [11]): 279 nM | IC50 (i20s; [10]): 2290 nM

IC50 60 minute point c20s (c20s; Table H, 60 minute point): inactive | IC50 60 minute point i20s (i20s; Table H, 60 minute point): inactive
Structure (SMILES): COC[C@H](NC(=O)c1cnc(C)s1)C(=O)N[C@@H](COC)C(=O)N[C@@H](Cc1ccccc1)C(=O)[C@](C)(O)COC(C)=O

Human Liver S9 % Conversion @ 1 hour [1]: 28%
Structure (SMILES): COC[C@H](NC(=O)c1cnc(C)s1)C(=O)N[C@@H](COC)C(=O)N[C@@H](Cc1ccccc1)C(=O)[C@@](C)(CI)OC(=O)OCc1ccc(OC(C)=O)cc1 [20-22]

Buffer pH = 7.4 % Conversion @ 1 hour [2]: 9.8%
Structure (SMILES): COC[C@H](NC(=O)c1cnc(C)s1)C(=O)N[C@@H](COC)C(=O)N[C@@H](Cc1ccccc1)C(=O)[C@](C)(O)COS(=O)(=O)C1CCOCC1 [compound 22]

IC50 (c20s; [11]): 2470 nM | IC50 (i20s; [10]): 2820 nM
Structure (SMILES): CC(C)C[C@H](NC(=O)[C@H](CCc1ccccc1)NC(=O)CN1CCOCC1)C(=O)N[C@@H](Cc1ccccc1)C(=O)N[C@@H](CC(C)C)C(=O)[C@](C)(O)COn1nnc2ccccc21

IC50 60 minute point c20s (c20s; Table H, 60 minute point): inactive | IC50 60 minute point i20s (i20s; Table H, 60 minute point): inactive
Structure (SMILES): COC[C@H](NC(=O)c1cnc(C)s1)C(=O)N[C@@H](COC)C(=O)N[C@@H](Cc1ccccc1)C(=O)[C@](C)(O)COC(=O)c1c(Cl)cccc1Cl

IC50 (c20s; [6]): 748 nM | IC50 (c20s; [7]): 141 nM | IC50 (i20s; [8]): 637 nM | IC50 (i20s; [9]): 252 nM
Structure (SMILES): COC[C@H](NC(=O)c1cnc(C)s1)C(=O)N[C@@H](COC)C(=O)N[C@@H](Cc1ccccc1)C(=O)[C@](C)(O)COS(=O)(=O)c1ccc(C)cc1

IC50 (c20s; [7]): 193 nM | IC50 (i20s; Table H, value marked * (Table G: did not converge), read-out: IC50 Slope i20s): 278 nM
Structure (SMILES): COC[C@H](NC(=O)c1cnc(C)s1)C(=O)N[C@@H](COC)C(=O)N[C@@H](Cc1ccccc1)C(=O)[C@](C)(O)COS(=O)(=O)C1CCOCC1 [drawing 373]

Human Liver S9 % Conversion @ 1 hour [1]: 30%
Structure (SMILES): COC[C@H](NC(=O)c1cnc(C)s1)C(=O)N[C@@H](COC)C(=O)N[C@@H](Cc1ccccc1)C(=O)[C@@](C)(CI)OC(=O)OCc1oc(=O)oc1C [20-15]

Human Liver S9 % Conversion @ 1 hour [1]: 7%
Structure (SMILES): COC[C@H](NC(=O)c1cnc(C)s1)C(=O)N[C@@H](COC)C(=O)N[C@@H](Cc1ccccc1)C(=O)[C@@](C)(CI)OC(=O)COc1ccccc1 [20-19]

Structure (SMILES): CC(C)C[C@H](NC(=O)[C@H](CCc1ccccc1)NC(=O)CN1CCOCC1)C(=O)N[C@@H](Cc1ccccc1)C(=O)N[C@@H](CC(C)C)/C(=N/OCc1ccccc1)[C@@]1(C)CO1
IC50 (c20s; [4]): 539 nM | IC50 (i20s; [5]): 2180 nM

IC50 (c20s; IC50 60 minute point c20s, Table H, 60 minute point, value marked * (Table G: did not converge)): 2560 nM | IC50 60 minute point i20s (i20s; Table H, 60 minute point): inactive
Structure (SMILES): COC[C@H](NC(=O)c1cnc(C)s1)C(=O)N[C@@H](COC)C(=O)N[C@@H](Cc1ccccc1)/C(=N/OC)[C@@]1(C)CO1

Buffer pH = 7.4 % Conversion @ 1 hour [2]: 23%
Structure (SMILES): COC[C@H](NC(=O)c1cnc(C)s1)C(=O)N[C@@H](COC)C(=O)N[C@@H](Cc1ccccc1)C(=O)[C@](C)(O)CBr [20-3]

IC50 (c20s; [4]): 8.91 nM | IC50 (i20s; [5]): 49.8 nM
Structure (SMILES): CC(C)C[C@H](NC(=O)[C@H](CCc1ccccc1)NC(=O)C[N+]1(COC(=O)C(C)(C)C)CCOCC1)C(=O)N[C@@H](Cc1ccccc1)C(=O)N[C@@H](CC(C)C)C(=O)[C@@]1(C)CO1

IC50 (c20s; [4]): 678 nM | IC50 (i20s; [10]): 2180 nM
Structure (SMILES): CC(=O)N/N=C(/[C@H](CC(C)C)NC(=O)[C@H](Cc1ccccc1)NC(=O)[C@H](CC(C)C)NC(=O)[C@H](CCc1ccccc1)NC(=O)CN1CCOCC1)[C@@]1(C)CO1

IC50 (c20s; [11]): 2440 nM | IC50 (i20s; [5]): 8190 nM
Structure (SMILES): CC(=O)OC[C@@](C)(O)C(=O)[C@H](CC(C)C)NC(=O)[C@H](Cc1ccccc1)NC(=O)[C@H](CC(C)C)NC(=O)[C@H](CCc1ccccc1)NC(=O)CN1CCOCC1

IC50 (c20s; [4]): 37.7 nM | IC50 (i20s; [5]): 98.7 nM
Structure (SMILES): CC(C)C[C@H](NC(=O)[C@H](CCc1ccccc1)NC(=O)CN1CCOCC1)C(=O)N[C@@H](Cc1ccccc1)C(=O)N[C@@H](CC(C)C)C(=O)[C@](C)(O)COS(C)(=O)=O

Human Liver S9 % Conversion @ 1 hour [1]: 3%
Structure (SMILES): COC[C@H](NC(=O)c1cnc(C)s1)C(=O)N[C@@H](COC)C(=O)N[C@@H](Cc1ccccc1)C(=O)[C@@](C)(CI)OC(=O)CCCCSC(C)=O [20-10]

Buffer pH = 7.4 % Conversion @ 1 hour [2]: 9.6%
Structure (SMILES): COC[C@H](NC(=O)c1cnc(C)s1)C(=O)N[C@@H](COC)C(=O)N[C@@H](Cc1ccccc1)C(=O)[C@](C)(O)COS(=O)(=O)Cc1ccccc1 [compound 23]

Human Liver S9 % Conversion @ 1 hour [1]: 22%
Structure (SMILES): COC[C@H](NC(=O)c1cnc(C)s1)C(=O)N[C@@H](COC)C(=O)N[C@@H](Cc1ccccc1)C(=O)[C@@](C)(CI)OC(=O)CCl [20-23]

IC50 (c20s; [7]): 95.4 nM
Structure (SMILES): COC[C@H](NC(=O)c1cnc(C)s1)C(=O)N[C@@H](COC)C(=O)N[C@@H](Cc1ccccc1)C(=O)[C@](C)(O)COS(=O)(=O)Cc1ccccc1 [drawing 374]

Buffer pH = 7.4 % Conversion @ 1 hour [2]: 0%
Structure (SMILES): COC[C@H](NC(=O)c1cnc(C)s1)C(=O)N[C@@H](COC)C(=O)N[C@@H](Cc1ccccc1)C(=O)[C@](C)(O)CCl [20-2]

Human Liver S9 % Conversion @ 1 hour [1]: 24%
Structure (SMILES): CCOC(=O)C(=O)O[C@](C)(CI)C(=O)[C@H](Cc1ccccc1)NC(=O)[C@H](COC)NC(=O)[C@H](COC)NC(=O)c1cnc(C)s1 [20-16]
